According to US10723716B2, “Alpha-helix mimetics as modulators of Abeta self-assembly” (New York University, priority 2016, dated 2020):
“Also recorded” adds a separate entry of the source. Where two headings read alike, the source gives them in different places.

Columns and labels:
[1] = tested on: IAPP mediated toxicity in rat INS-1 cells; experiment: IAPP mediated toxicity in INS-1 cells; assay type: cell-based; settings: equimolar ratio
Aβ42 [2] = molecular target: T1, Aβ42 (Homo sapiens, UniProt P05067); experiment: ELISA with Aβ oligomer-specific antibody (OMAB); assay type: biochemical; settings: for Aβ42 oligomers by ELISA on delayed addition: 2 μM Aβ42, compound added at 3 h and 6 h, equimolar; for ELISA absorbance (soluble Aβ42 oligomers, OMAB): Aβ42 incubated with compound, equimolar ratio, all time points
T1 construct: Cleavage of APP results in several Aβ isoforms; The predominant species are Aβ42 and Aβ40; purchased Anaspec (Fremont, Calif., USA)
Method: The ELISA was performed according to a previously published method (see Lindhagen-Persson, M.; Brännström, K.; Vestling, M.; Steinitz, M.; Olofsson, A. PLoS ONE 2010, 5, e13928). A Nunc-Immuno MaxiSorp plate (Sigma Aldrich, St. Louis, Mo., USA) was incubated with 2 μg mL^−1 Aβ oligomer-specific antibody (OMAB, Agrisera, Sweden) in PBS buffer overnight at 4° C. (200 μl/well). Wells were blocked with 5% fat-free milk in PBS buffer with 0.1% Tween 20 (PBST) for 1 h at 4° C. and washed with PBST buffer (×3). Wells were then treated with Aβ42 samples overnight at 4° C. […] Samples were diluted by 1:30 in PBS buffer before adding to a 96-well plate. After adding Aβ42 samples, the wells were washed (×3) with PBST buffer followed by the addition of 6E10 antibody (1/1000 dilution in 5% nonfat free milk in PBST buffer) for 1 h at r.t. Wells were washed (×5) with PBST buffer and treated with an anti-mouse HRP-conjugated IgG (1/10,000 dilution in 5% nonfat free milk in PBST buffer). Wells were washed (×5) with PBST buffer and treated with TMB Peroxidase EIA Substrate Kit (Biorad, Hercules, Calif., USA). The plates were developed until the color of the solution turned blue. The reaction was stopped by adding 100 μL of 1N H2SO4 to each well. The color of the solution changed to yellow from blue. The absorbance was recorded at 450 nm on a FlexStation 3 Multi-Mode Microplate reader from Molecular Devices (Sunnyvale, Calif., USA). Each sample was repeated in triplicate.

Aβ42 [3] = molecular target: T1, Aβ42; experiment: ThT-based kinetic assay of Aβ42 aggregation; assay type: biochemical; settings: 5 μM Aβ42, equimolar, compound added at 2 h
Aβ42 [4] = molecular target: T1, Aβ42; experiment: Seed-catalyzed kinetic assay, Aβ42; assay type: biochemical; settings: equimolar ratio, preformed fibers (seeds)
Method: Seeds of Aβ40/Aβ42 were prepared by incubating 200 μM of Aβ40/Aβ42 in phosphate buffer at room temperature. The samples were aged for 48 h and the formation of fibers was confirmed by TEM and ThT before storage at −20° C. until use. For the aggregation of Aβ40, 10% (based on the monomeric Aβ40, v/v) seeds were added along with ThT in phosphate buffer to the 96-well plate. The aggregation was initiated by the addition of monomeric Aβ40 followed by gentle mixing. The process was similar in the case of Aβ42 except that the seed concentration was 5% (based on the monomeric Aβ42, v/v).
The seeds were generated by aging 200 μM Aβ peptides for 48 h in phosphate buffer with occasional vortexing. The concentration of seeds was calculated based on the monomeric concentration of Aβ.

Neuro-2a cells = experiment: Effect of compound alone on Neuro-2a cell viability; assay type: cell-based, mouse; settings: for toxicity of compound alone to Neuro-2a cells: matched cytotoxic experimental conditions, no Aβ42
Method: To investigate the toxic effect of the peptide alone on cell viability, solution (B) without the oligopyridylamide compound was mixed with solution (A), while the effect of the oligopyridylamide compound alone was determined by adding solution (A) without peptide to solution (B). The effect of oligopyridylamides on seed-catalyzed Aβ42 aggregation was probed by preparing an additional solution (C) containing 0.5 μM seeds. The volume contributed by solution (C) was taken into account in preparing solution (B). Solution (C) was mixed with solution (B), and the resulting mixture was then added to solution (A) shortly before addition to the wells. To study the effect of oligopyridylamides on the oligomeric states of Aβ42, solution (A) was mixed with solution (B) without inhibitor and incubated at room temperature for 1, 2 or 3 h. Subsequently, 50 μM oligopyridylamides was added to the mixture, which was then immediately added to the cells. […] The MTS reagent was incubated for 2.5 h at 37° C., and absorbance of the soluble formazan product (λ=490 nm) of MTS reduction was measured on a Synergy H1MF Multi-Mode microplate-reader (BioTek, Winooski, Vt., USA), with a reference wavelength of 650 nm to subtract the background. Wells treated with a solution containing serum-free DMEM, 200 μM NaOH, 0.1×PBS and 0.5% (v/v) DMSO served as control. MTS reduction was determined from the ratio of the absorbance of the treated wells to the control wells. Each data point represents an average of four independent quadruplet-well trials.

[5] = tested on: Aβ42 mediated toxicity in mouse neuroblastoma (N2a) cells; experiment: Aβ42 mediated toxicity in Neuro-2a cells (MTS cell viability); assay type: cell-based; settings: for IC50: 5 μM Aβ42, N2a cells, read-out: IC50 (concentration required to inhibit 50% cell toxicity induced by 5 μM Aβ42); for cell viability, delayed addition: in % (unit assumed)
[6] = mouse/rat NG108-15, N2a, 5 μM Aβ42 + seeds (10% v/v), 5 μM compound, without compound 31%, read-out: cell viability, seed-induced Aβ42 cytotoxicity

T1 sequence (P05067 672-713 limits assumed): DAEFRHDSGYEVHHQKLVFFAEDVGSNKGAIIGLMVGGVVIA

| Aβ42 oligomers by ELISA on delayed addition (Aβ42 [2]) | ELISA absorbance (soluble Aβ42 oligomers, OMAB) (Aβ42 [2]) | effect on Aβ42 amyloid reaction on delayed addition (Aβ42 [3]) | SMILES | cell viability ([1]; IAPP, INS-1 cells, IAPP alone 65±6%) [%] | effect on seed-catalyzed Aβ42 fibrillation (Aβ42 [4]) | toxicity of compound alone to Neuro-2a cells (Neuro-2a cells) | IC50 ([5]; mouse/rat NG108-15, N2a) [nM] | viability at 5 µM [5, 6] [%] | effect on IAPP mediated toxicity ([1]; rat INS-1 cells) | cell viability, compound alone (Neuro-2a cells; 4 μM ADH-41 + 1 μM ADH-41F, N2a cells, 24 h) [%] | IC50 [5] [nM] | cell viability, delayed addition ([5]; ADH-41 added after 24 h of exposure to 5 μM Aβ42) | cell viability, delayed addition ([5]; ADH-41 added after 48 h of exposure to 5 μM Aβ42) | viability at 5 µM ([5]; mouse/rat NG108-15, N2a, 24 h, read-out: cell viability) [%] | viability at 5 µM ([5]; mouse/rat NG108-15, N2a, read-out: cell viability, delayed addition) [%] |
| --- | --- | --- | --- | --- | --- | --- | --- | --- | --- | --- | --- | --- | --- | --- | --- |
| no evidence of oligomers | significantly lower | effective in inhibiting | COC(=O)c1ccc(NC(=O)c2ccc(NC(=O)c3ccc(NC(=O)c4ccc([N+](=O)[O-])c(OCC(C)C)n4)c(OCc4ccccc4)n3)c(OCC(=O)O)n2)c(OCC(=O)O)n1 [ADH-31] | 98±4 | completely suppressed | not toxic | 2500 ± 100 | 69 | – | – | – | – | – | – | – |
| no evidence of oligomers | significantly lower | effective in inhibiting | COC(=O)c1ccc(NC(=O)c2ccc(NC(=O)c3ccc([N+](=O)[O-])c(OCc4ccccc4)n3)c(OCCCN)n2)c(OCCCN)n1 [ADH-41] | – | completely arrested; also recorded: completely inhibits; also recorded: completely suppressed | not toxic | 1450 | 63 | did not have any effect; also recorded: no effect | 98 | 1400 ± 100 | 79±2 | 102±2 | 99 | 93 ± 2 |
